In US6706663B2, “Herbicidal 3-heterocyclic substituted benzisothiazole and benzisoxazole compounds” (Wyeth, priority 2000, dated 2004):

Key:
[1] = tested on: ABUTH (Abutilon theophrasti); test: Postemergence herbicidal evaluation; assay type: in vivo, Medic.; conditions: postemergence
Method in brief: (§1)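 Seedlings grown about two weeks in flats, sprayed, then kept under standard greenhouse care. Rated visually 4–5 weeks after treatment on a 0–9 scale (stand, vigour, malformation, size, chlorosis, overall appearance) relative to untreated control; repeat tests averaged.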

[2] = tested on: GLXMAW (Soybean, Williams); test: Postemergence herbicidal evaluation; assay type: in vivo, Glycine max, (L.) Merr. cv Williams; conditions: postemergence
Method in brief: as §1

[3] = tested on: IPOHE (Ipomoea hederacea); test: Postemergence herbicidal evaluation; assay type: in vivo, (L.) Jacq.; conditions: postemergence
Method in brief: as §1

ORYSAT (Rice, Tebonnet) [4] = test: Postemergence herbicidal evaluation; assay type: in vivo, Oryza sativa, (L.) Tebonnet; conditions: postemergence
Method in brief: as §1

SETVI (Setaria viridis) [5] = test: Postemergence herbicidal evaluation; assay type: in vivo, (L.) Beau; conditions: postemergence
Method in brief: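 Seedlings about two weeks old were sprayed with compound in 50/50 acetone/water plus 0.5% TWEEN 20, at the equivalent of about 0.0040 to 1.000 kg/ha. Plants were kept in a greenhouse and visually rated 0-9 against a control four to five weeks after treatment. Repeat tests were averaged.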

[6] = tested on: MOOVA (Monochoria vaginalis); test: Flooded paddy, preemergence weed control; assay type: in vivo, Presl.; conditions: rated 3-4 weeks after treatment, 0-9 rating scale
Method in brief: (§2)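 Seeds or propagules were planted in the top 0.5 cm of silt loam soil and kept flooded 1.5–3 cm above the surface throughout, then held in the greenhouse. Injury was rated visually on a 0–9 scale against untreated controls, covering stand, vigor, malformation, size and chlorosis.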

CYPIR (Cyperus iria) = test: Flooded paddy, preemergence weed control; assay type: in vivo; conditions: rated 3-4 weeks after treatment, 0-9 rating scale
Method in brief: as §2

[7] = tested on: ECHORC (Echinochloa oryzoides); test: Flooded paddy, preemergence weed control; assay type: in vivo, Echinochloa oryzoides (Ard.) Fritsch.; conditions: rated 3-4 weeks after treatment, 0-9 rating scale
Method in brief: as §2

ORYSAT (Rice, Tebonnet) [8] = test: Preemergence herbicidal evaluation; assay type: in vivo, Oryza sativa, (L.) Tebonnet; conditions: rated 4-5 weeks after treatment
[9] = tested on: CHEAL (Chenopodium album); test: Preemergence herbicidal evaluation; assay type: in vivo, L.; conditions: rated 4-5 weeks after treatment
Method in brief: (§3)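 Seeds planted in potting soil cups and sprayed preemergence with aqueous acetone compound solution. Greenhouse-grown; rated 4–5 weeks after treatment on a 0-9 visual scale (stand, vigor, malformation, size, chlorosis, appearance) versus control.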

[10] = tested on: AMBEL (Ambrosia artemisifolia); test: Preemergence herbicidal evaluation; assay type: in vivo, L.; conditions: rated 4-5 weeks after treatment
Method in brief: as §3

[11] = tested on: CASOB (Cassia obtusifolia); test: Preemergence herbicidal evaluation; assay type: in vivo, L.; conditions: rated 4-5 weeks after treatment
Method in brief: as §3

[12] = tested on: SAGPY (Sagittaria pygmaea); test: Flooded paddy, preemergence weed control; assay type: in vivo, L.; conditions: rated 3-4 weeks after treatment, 0-9 rating scale
Method in brief: as §2

SETVI (Setaria viridis) [13] = test: Preemergence herbicidal evaluation; assay type: in vivo, (L.) Beau; conditions: rated 4-5 weeks after treatment
Method in brief: as §3

[14] = tested on: ECHCG (Echinochloa crus-galli); test: Preemergence herbicidal evaluation; assay type: in vivo, (L.) Beau; conditions: rated 4-5 weeks after treatment
Method in brief: as §3

GALAP (Galium aparine) = test: Postemergence herbicidal evaluation; assay type: in vivo; conditions: postemergence
Method in brief: as §1

[15] = tested on: ECHCG (Echinochloa crus-galli); test: Postemergence herbicidal evaluation; assay type: in vivo, (L.) Beau; conditions: postemergence
Method in brief: as §1

ORYSAT (Rice, Tebonnet) [16] = test: Flooded paddy, post-transplant rice tolerance; assay type: in vivo, Oryza sativa, (L.) Tebonnet; conditions: flooded paddy, post-transplant rice, rated 3-4 weeks after treatment, 0-9 rating scale
Method in brief: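 Ten-day-old seedlings, 2/pot, silt loam; flood kept 1.5–3 cm over soil; herbicide applied post-transplant; greenhouse; score 0–9 visual vs control.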

[17] = tested on: IPOHE (Ipomoea hederacea); test: Preemergence herbicidal evaluation; assay type: in vivo, (L.) Jacq.; conditions: rated 4-5 weeks after treatment
ZEAMX (Corn, Field) = test: Postemergence herbicidal evaluation; assay type: in vivo, Zea mays, L.; conditions: postemergence
Method in brief: as §1

## Cn1c(C(F)(F)F)cc(=O)n(-c2ccc3snc(C4OC(=O)C(C)(C)O4)c3c2)c1=O (stereo not shown) [Compound 71, 3-[3-(4,4-dimethyl-5-oxo-1,3-dioxolan-2-yl)-1,2-benzisothiazol-5-yl]-1-methyl-6-(trifluoromethyl)uracil]
[1]; rate 0.0320 kg/ha
  ABUTH herbicidal rating: 9.0
[1]; rate 0.0620 kg/ha
  ABUTH herbicidal rating: 9.0
[2]; rate 0.0320 kg/ha
  GLXMAW herbicidal rating: 4.5
[2]; rate 0.0620 kg/ha
  GLXMAW herbicidal rating: 4.5
[3]; rate 0.0320 kg/ha
  IPOHE herbicidal rating: 9.0
[3]; rate 0.0620 kg/ha
  IPOHE herbicidal rating: 9.0
ORYSAT (Rice, Tebonnet) [4]; rate 0.0320 kg/ha
  ORYSAT herbicidal rating: 3.0
ORYSAT (Rice, Tebonnet) [4]; rate 0.0620 kg/ha
  ORYSAT herbicidal rating: 4.5
SETVI (Setaria viridis) [5]; rate 0.0320 kg/ha
  SETVI herbicidal rating: 2.0
SETVI (Setaria viridis) [5]; rate 0.0620 kg/ha
  SETVI herbicidal rating: 7.0
[6]; rate 0.0080 kg/ha
  herbicidal rating, MOOVA: 0.0
[6]; rate 0.0320 kg/ha
  herbicidal rating, MOOVA: 0.0
[6]; rate 0.1250 kg/ha
  herbicidal rating, MOOVA: 0.0
CYPIR (Cyperus iria); rate 0.0080 kg/ha
  herbicidal rating, CYPIR: 0.0
CYPIR (Cyperus iria); rate 0.0320 kg/ha
  herbicidal rating, CYPIR: 0.0
CYPIR (Cyperus iria); rate 0.1250 kg/ha
  herbicidal rating, CYPIR: 0.0
[7]; rate 0.0080 kg/ha
  herbicidal rating, ECHORC: 0.0
[7]; rate 0.0320 kg/ha
  herbicidal rating, ECHORC: 0.0
[7]; rate 0.1250 kg/ha
  herbicidal rating, ECHORC: 0.0
ORYSAT (Rice, Tebonnet) [8]; Rate 0.0620 kg/ha
  Preemergence herbicidal rating ORYSAT: 5.5
ORYSAT (Rice, Tebonnet) [8]; Rate 0.1250 kg/ha
  Preemergence herbicidal rating ORYSAT: 8.0
ORYSAT (Rice, Tebonnet) [8]; Rate 0.2500 kg/ha
  Preemergence herbicidal rating ORYSAT: 8.5
[9]; Rate 0.0620 kg/ha
  Preemergence herbicidal rating CHEAL: 9.0
[9]; Rate 0.1250 kg/ha
  Preemergence herbicidal rating CHEAL: 9.0
[9]; Rate 0.2500 kg/ha
  Preemergence herbicidal rating CHEAL: 9.0
[10]; Rate 0.0620 kg/ha
  Preemergence herbicidal rating AMBEL: 8.0
[10]; Rate 0.1250 kg/ha
  Preemergence herbicidal rating AMBEL: 9.0
[10]; Rate 0.2500 kg/ha
  Preemergence herbicidal rating AMBEL: 9.0
[11]; Rate 0.0620 kg/ha
  Preemergence herbicidal rating CASOB: 3.5
[11]; Rate 0.1250 kg/ha
  Preemergence herbicidal rating CASOB: 6.5
[11]; Rate 0.2500 kg/ha
  Preemergence herbicidal rating CASOB: 7.5
[12]; rate 0.0080 kg/ha
  herbicidal rating, SAGPY: 0.0
[12]; rate 0.0320 kg/ha
  herbicidal rating, SAGPY: 0.0
[12]; rate 0.1250 kg/ha
  herbicidal rating, SAGPY: 0.0
SETVI (Setaria viridis) [13]; Rate 0.0620 kg/ha
  Preemergence herbicidal rating SETVI: 8.0
SETVI (Setaria viridis) [13]; Rate 0.1250 kg/ha
  Preemergence herbicidal rating SETVI: 9.0
SETVI (Setaria viridis) [13]; Rate 0.2500 kg/ha
  Preemergence herbicidal rating SETVI: 9.0
[14]; Rate 0.0620 kg/ha
  Preemergence herbicidal rating ECHCG: 5.5
[14]; Rate 0.1250 kg/ha
  Preemergence herbicidal rating ECHCG: 8.0
[14]; Rate 0.2500 kg/ha
  Preemergence herbicidal rating ECHCG: 8.0
GALAP (Galium aparine); rate 0.0320 kg/ha
  GALAP herbicidal rating: 2.0
GALAP (Galium aparine); rate 0.0620 kg/ha
  GALAP herbicidal rating: 7.0
[15]; rate 0.0320 kg/ha
  ECHCG herbicidal rating: 1.0
[15]; rate 0.0620 kg/ha
  ECHCG herbicidal rating: 3.0
ORYSAT (Rice, Tebonnet) [16]; rate 0.0080 kg/ha
  herbicidal rating, ORYSAT (rice tolerance): 0.0
ORYSAT (Rice, Tebonnet) [16]; rate 0.0320 kg/ha
  herbicidal rating, ORYSAT (rice tolerance): 0.0
ORYSAT (Rice, Tebonnet) [16]; rate 0.1250 kg/ha
  herbicidal rating, ORYSAT (rice tolerance): 0.0
[17]; Rate 0.0620 kg/ha
  Preemergence herbicidal rating IPOHE: 7.0
[17]; Rate 0.1250 kg/ha
  Preemergence herbicidal rating IPOHE: 9.0
[17]; Rate 0.2500 kg/ha
  Preemergence herbicidal rating IPOHE: 9.0
ZEAMX (Corn, Field); rate 0.0320 kg/ha
  ZEAMX herbicidal rating: 4.5
ZEAMX (Corn, Field); rate 0.0620 kg/ha
  ZEAMX herbicidal rating: 5.0
